These results are taken from ChEMBL document CHEMBL1201862, “PubChem BioAssay data set” (2004).

Structures can show the parent of a compound that is named as a salt.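 Grown in 96-well plates, cells were treated for 48 hours with each compound at five concentrations. Insufficient inhibition: endpoint recorded as highest concentration tested. Here, GI50 denotes the concentration required for 50% inhibition of growth.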 The source made the active and inactive calls. No stated cut-off is given here; in the data, active = GI50 up to about 1.1 µM and inactive = higher. Where only a bound is given, the exact number is not on record here.

Some test systems named below: OVCAR-5; RPMI-8226; U-251; T47D; HCC 2998; HCT-116; IGROV-1; HL-60; PC-3; Malme-3M; COLO 205; MOLT-4; OVCAR-8; HOP-62; MCF7; HT-29; SF-539; NCI/ADR-RES; DU-145; CCRF-CEM.
Assay in all cases: growth of human tumour cells (NCI), 48 h

For `Cc1cc(=O)n2nc(CSc3nnc(Sc4cc(O)ccc4O)s3)sc2n1`, the GI50 in the test on OVCAR-5 was > 100 µM (inactive); in the test with RPMI-8226 it was 24.5 µM (inactive); in the test with U-251, 35.8 µM (inactive); in the test with T47D it was 32.1 µM (inactive); with HCC 2998, > 100 µM (inactive); with HCT-116, 19.7 µM (inactive). For the same molecule, the GI50 in the test with IGROV-1 was > 100 µM (inactive); with HL-60, 26.4 µM (inactive); with PC-3, > 100 µM (inactive); with Malme-3M, 40.3 µM (inactive); with COLO 205, 68.5 µM (inactive); in the test on MOLT-4, 24.4 µM (inactive). Besides, the GI50 was 67.1 µM (inactive) in the test with OVCAR-8; > 100 µM (inactive) with HOP-62; 14.2 µM (inactive) with MCF7; > 100 µM (inactive) in the test on HT-29; > 100 µM (inactive) in the test on SF-539; > 100 µM (inactive) in the test on NCI/ADR-RES. Moreover, the results for the GI50 with DU-145 and in the test with CCRF-CEM were > 100 µM (inactive) and 22.6 µM (inactive), respectively.

Take `CCOC(=O)CCC(NC(=O)N1CCN(c2c(C)nc(C)nc2O)CC1)C(=O)OCC` (stereo not given): the GI50 with OVCAR-5, in the test on RPMI-8226, with U-251, in the test on T47D, with HCC 2998 and in the test on HCT-116 was > 100 µM (inactive) throughout. In addition, the GI50 with IGROV-1, with HL-60, in the test on PC-3, with Malme-3M, in the test on COLO 205 and with MOLT-4 was > 100 µM (inactive) in each case. The GI50 in the test on OVCAR-8, in the test with HOP-62, in the test on MCF7, with HT-29, with SF-539 and in the test on NCI/ADR-RES was > 100 µM (inactive) each time. Moreover, the GI50 with DU-145 and in the test with CCRF-CEM was > 100 µM (inactive) throughout.

With `Cc1cc2c(cc1-c1cc3c(cc1C)C(C(C)C)=C(O)C(=O)/C3=C\NCC1CCCN3CCCCC13)/C(=C/NCC1CCCN3CCCCC13)C(=O)C(O)=C2C(C)C` (stereo not given), the GI50 is 10.8 µM (inactive) in the test with OVCAR-5; 11.3 µM (inactive) with RPMI-8226; 2.9 µM (inactive) in the test with U-251; 8.05 µM (inactive) in the test on T47D; 17.5 µM (inactive) in the test on HCC 2998; 4.72 µM (inactive) in the test with HCT-116. The GI50 in the test with IGROV-1 is 5.97 µM (inactive); in the test on HL-60 it was 2.97 µM (inactive); in the test on PC-3 it was 5.02 µM (inactive); in the test on Malme-3M, 10.3 µM (inactive); in the test with COLO 205, 3.47 µM (inactive); in the test on MOLT-4, 3.52 µM (inactive). Further, the GI50 is 3.61 µM (inactive) with OVCAR-8; 4.27 µM (inactive) in the test with HOP-62; 12.4 µM (inactive) with MCF7; 2.47 µM (inactive) in the test on HT-29; 14.9 µM (inactive) with SF-539; 7.36 µM (inactive) in the test on NCI/ADR-RES. Further, the GI50 is 11 µM (inactive) in the test on DU-145 and 2.83 µM (inactive) in the test with CCRF-CEM.

As to `CCCNC(=O)CCC(C)[C@H]1CCC2C3C(C[C@H](OC(C)=O)[C@@]21C)[C@@]1(C)CCC2(C[C@H]1C[C@H]3OC(C)=O)OOC1(CCCCC1)OO2` (stereo not given in full), the GI50 in the test on OVCAR-5 was 2.67 µM (inactive); in the test with RPMI-8226 it was 0.923 µM (active); in the test on U-251, 1.85 µM (inactive); with T47D, 2.11 µM (inactive); in the test on HCC 2998 it was 2.7 µM (inactive); in the test with HCT-116 it was 2.93 µM (inactive). Also, the GI50 in the test on IGROV-1 was 0.478 µM (active); in the test on HL-60, 1.51 µM (inactive); in the test with PC-3, 1.69 µM (inactive); with Malme-3M, 2.13 µM (inactive); with COLO 205, 1.75 µM (inactive); in the test with MOLT-4, 1.67 µM (inactive). Also, the GI50 in the test with OVCAR-8 was 1.42 µM (inactive); with HOP-62, 0.261 µM (active); with MCF7 it was 3.04 µM (inactive); in the test with HT-29, 3.96 µM (inactive); with SF-539, 3.66 µM (inactive); with NCI/ADR-RES, 2.39 µM (inactive). The GI50 in the test with DU-145 is 1.85 µM (inactive); with CCRF-CEM it was 1.73 µM (inactive).

On to `C=Cc1c(C)c(O)cc2c1-c1ccc(O)c(C)c1CC2`, for which the GI50 is 27.2 µM (inactive) in the test with OVCAR-5; 22.4 µM (inactive) in the test with RPMI-8226; 14.3 µM (inactive) in the test with U-251; 10.9 µM (inactive) with T47D; 19 µM (inactive) in the test with HCC 2998; 14.1 µM (inactive) in the test on HCT-116. The GI50 in the test with IGROV-1 is 16.6 µM (inactive); in the test with HL-60, 15 µM (inactive); in the test with PC-3 it was > 10 µM (inactive); with Malme-3M, 19.6 µM (inactive); with COLO 205, 19.3 µM (inactive); with MOLT-4 it was 11.6 µM (inactive). The GI50 in the test with OVCAR-8 is 17.5 µM (inactive); with HOP-62, 26.7 µM (inactive); in the test with MCF7 it was 20.9 µM (inactive); with HT-29 it was 23.7 µM (inactive); with SF-539 it was 13.5 µM (inactive); in the test on NCI/ADR-RES it was 21 µM (inactive). In addition, the GI50 with DU-145 is 14.1 µM (inactive); in the test with CCRF-CEM, 12.5 µM (inactive).

With `NCCS` [CYSTEAMINE HYDROCHLORIDE], the GI50 in the test with OVCAR-5, in the test with RPMI-8226, with U-251, in the test with T47D, in the test with HCC 2998 and in the test on HCT-116 was > 100 µM (inactive) each time. Further, the GI50 in the test on IGROV-1, in the test with HL-60, with PC-3, with Malme-3M, with COLO 205 and with MOLT-4 was > 100 µM (inactive) each time. Besides, the GI50 with OVCAR-8 is > 100 µM (inactive); with HOP-62 it was > 100 µM (inactive); with MCF7 it was > 100 µM (inactive); with HT-29 it was > 100 µM (inactive); in the test on SF-539, 45.8 µM (inactive); in the test with NCI/ADR-RES, > 100 µM (inactive). Moreover, the GI50 in the test with DU-145 and in the test on CCRF-CEM was > 100 µM (inactive) each time.
